SMILES strings stand for the structures. Converted amounts (≈) assume the structure as drawn. Like-named read-outs stand apart in the source and are kept apart here.

Data on one molecule can be found in patent US20120208781A1, “AMINOGLYCOSIDE DOSING REGIMENS” (Achaogen, Inc., priority 2009, published 2012).

The test system of one data set is Enterobacteriaceae (EN). The data set is described as follows: MIC, broth microdilution, Brooklyn hospital isolates: Enterobacteriaceae subsets (amikacin-resistant, KPC+). In kind it is cell-based. How it is done: In another study, the activity of Compound 1 against a collection of contemporary Gram-negative bacteria was determined. Unique patient isolates of P. aeruginosa (PA), A. baumannii (AB), K. pneumoniae (KP), E. coli (EC), and Enterobacter spp. (EB) from prior surveys at 16 Brooklyn, N.Y. hospitals were selected based on resistance patterns. The majority of isolates were fingerprinted by automated ribotyping. MICs were performed by broth microdilution. PCR was used to identify aminoglycoside-modifying enzymes (AMEs) in AB and KP and the KPC gene in Enterobacteriaceae (EN). The expression of the efflux genes mexA, C, E and X in PA, and adeB in AB was assessed by real-time RT-PCR.

Data set [1] is described as follows: Phase 1 study 15 mg/kg/day once daily for five days: pharmacokinetics. Particulars: human. In kind it is in vivo. The method, then:
An additional randomized, double-blind, placebo-controlled study was performed to assess the safety and pharmacokinetics of Compound 1 following IV administration to healthy adult volunteers according to a high dose, short course regimen of 15 mg/kg/day of Compound 1 administered once daily for five days. Compound 1 was formulated as a sterile solution at a concentration of 50 mg/mL in 10 mL glass vials for intravenous (IV) administration (“Compound 1 Injection”). Eight healthy subjects were randomized to receive either Compound 1 Injection or placebo administered IV by 10 minute infusion daily for five days. Seven subjects received 5 doses and one received 3 doses (early withdrawal for personal reasons).

Data set [2] is described as follows: Pharmacokinetics of Compound 1 after single bolus IV injection in mice. In kind it is in vivo, CD-1 mice. As to conditions: 10 mg/kg single bolus IV; for C0: 10 mg/kg. How it is done:
Male CD-1 mice, Sprague Dawley rats, and beagle dogs were administered Compound 1 intravenously. Compound 1 was preformulated as a sterile isotonic solution of 10 mg/mL in PBS. Specifically, male CD-1 mice were administered a single bolus IV injection of the Compound at 10 mg/kg, via a bolus IV injection into the tail vein. Two blood samples per mouse were collected by retro-orbital puncture into tubes containing the anticoagulant K2EDTA prior to dosing and at 0.033, 0.083, 0.25, 0.5, 1 and 24 hours. Rats were administered Compound 1 at 10 mg/kg via a bolus IV injection into the tail vein. Twelve blood samples per rat were collected via a jugular vein cannula into tubes containing the anticoagulant K2EDTA at various timepoints (i.e., 0.033, 0.083, 0.25, 0.5, 1, 2, 4, 6, 8, 10, 12, and 24 hours). Male beagle dogs were administered Compound 1 at 10 mg/kg through a temporary percutaneous catheter placed in a peripheral vein. Whole blood samples (0.5 mL) were collected from each dog prior to dosing and at 0.033, 0.083, 0.25, 0.5, 1, 2, 4, 6, 8, and 24 hours via direct venipuncture of a jugular or cephalic vein into tubes containing the anticoagulant K2EDTA. A sparse sampling method was employed to conserve animals and provide the best data possible from fewer mice. Samples were centrifuged, and plasma was collected and transferred into a new tube and frozen at −80° C. until they were analyzed.
Blood, urine, and kidney samples collected over 24 hours were analyzed for Compound 1 levels using LC-MS/MS. Method performance was acceptable in the concentration ranges necessary to determine plasma levels. Compound 1 plasma concentrations were determined by comparing Compound 1 concentration in the sample to a standard curve derived from LC-MS/MS measurements of the analyte. The standard curve fit was linear with a 1/x^2 weighting.
Bioanalytical data analyses were carried out using Analyst software (version 1.4.1, Applied Biosystems, Toronto, ON, Canada). […] PK parameters were determined by noncompartmental analysis using WinNonLin. Plasma protein binding was determined using equilibrium dialysis. In vitro stability was determined using commercially available plasma, microsomes and hepatocytes.

In data set [3] the test system is glomerular filtration rate. In words: First-in-human phase 1 study: renal function (BUN, Cr, iothalamate GFR). It counts as in vivo. Particulars: healthy volunteers. The method, then:
Safety evaluation was based on clinical observations, vital sign measurements, laboratory tests, physical examination, electrocardiogram, cochlear function, vestibular function testing, and reported adverse events. Cochlear function was evaluated by pure tone audiometry with bone conduction and otoacoustic emission (OAE) testing. Vestibular function was evaluated by electronystagmography (ENG) and Dynamic Visual Acuity (DVA) test. Laboratory tests included complete blood count (CBC), serum chemistries, and urinalysis. BUN and creatinine (Cr) were assessed daily on dosing days to allow the Investigator to monitor renal function. Results were used as criteria for dose escalation. The glomerular filtration rate (GFR) was estimated using iothalamate plasma measurements before dosing and after the multiple dose periods. GFR was also assessed by Cr clearance before dosing and after the multiple dose periods.
Iothalamate was infused the day prior to the single-dose and prior to the first multiple-dose and the day after the last multiple-dose. Blood samples for iothalamate analysis for GFR calculation were obtained prior to the start of the iothalamate infusion and the following hours after the start of the infusion: 1, 2, 4, and 8.

Setting [4] is: after 5 days of once-daily IV 15 mg/kg.
[5] abbreviates: plasma, after 5 days of once-daily IV 15 mg/kg.

For `CN[C@@H]1[C@@H](O)[C@@H](O[C@@H]2[C@@H](O)[C@H](O[C@H]3OC(CNCCO)=CC[C@H]3N)[C@@H](N)C[C@H]2NC(=O)[C@@H](O)CCN)OC[C@]1(C)O` [Compound 1, 6′-(2-Hydroxy-ethyl)-1-(4-amino-2(S)-hydroxy-butyryl)-sisomicin], the MIC50 in the data set with Enterobacteriaceae (EN) and against Enterobacteriaceae (EN) (KPC +− EN (n = 24)) was 0.5 µg/mL (≈ 0.844 µM) each time. For the same molecule, the values for the MIC90 against Enterobacteriaceae (EN) (Amikacin-Resistant-EN (n = 35)) and in the data set with Enterobacteriaceae (EN) (KPC +− EN (n = 24)) were 2 µg/mL (≈ 3.37 µM) and 4 µg/mL (≈ 6.75 µM), respectively. In data set [1] (setting [4]), the “area under the plasma concentration-time curve” value worked out at 239 µg·h/mL. For the same molecule, the fluctuation index in data set [1] (setting [4]) is on record as above 1000%. Besides, the “trough (Cmin)” value in data set [1] (setting [4]) was 0.4 µg/mL. The drug accumulation result in data set [1] (once-daily dosing for up to 5 days) is on record as “lack of appreciable drug accumulation”. The AUC in data set [1] (plasma, intravenous, 15 mg/kg, read-out: average AUC in humans) was around 240 µg·h/mL. Besides, the clearance in data set [1] (setting [5]) was 1.1 mL/min/kg; in data set [2] (male, CD-1, mouse, plasma), 9.02 mL/min/kg. Also, the half-life in data set [1] (setting [5]) was around 3 h; in data set [2] (male, CD-1, mouse, plasma), 1.4 h. Further, the Cmax in data set [1] (plasma, after 5 days of once-daily IV 15 mg/kg, read-out: peak (Cmax)) was found to be 113 µg/mL. In addition, the Vd in data set [1] (plasma, after 5 days of once-daily IV 15 mg/kg, read-out: steady state volume of distribution) was 0.24 L/kg; in data set [2] (male, CD-1, mouse, plasma, read-out: Vss) it was 0.34 L; in data set [2] (male, CD-1, mouse, plasma, read-out: volume of distribution at steady state (Vss)), 0.34 L/kg. Moreover, the C0 in data set [2] was determined as 87.6 µg/mL; in data set [2] (male, CD-1, mouse, plasma, iv, read-out: C0), 88 µg/mL. The AUC(0-inf) in data set [2] (male, CD-1, mouse, plasma) stood at 18.5 µg·h/mL. Moreover, in data set [2] (male, CD-1, mouse, plasma, read-out: MRT0-∞), the MRT inf was 0.6 h. In addition, in data set [3], the “iothalamate plasma measurements (GFR)” value is “did not change”.
